Measurements reported in article PMC8623398, “Investigation of the Mechanisms of Cytotoxic Activity of 1,3-Disubstituted Thiourea Derivatives” (Pharmaceuticals, 2021).

Assays:
HaCaT cells [1] = assay: MTT assay, HaCaT normal cells; assay type: cell-based, human; conditions: Homo sapiens, HaCaT, 72 h
Description: (§1) As a first step in assessing their cytotoxic properties, all thioureas of the series were assayed against four human carcinoma cell lines, such as SW480 (primary colon cancer), SW620 (metastatic colon cancer), PC3 (metastatic prostate cancer), and K-562 (chronic myelogenous leukemia), as well as against the normal cell line HaCaT (immortalized human keratinocytes). Table 1 lists the compound concentrations that produced 50% of growth inhibition (IC50, μM), generated by the MTT method, in comparison with two commonly used chemotherapeutic agents, doxorubicin and cisplatin.
(§2) The human primary (SW480), metastatic (SW620) colon cancer, metastatic prostate cancer (PC3), chronic myelogenous leukemia (K-562), and human immortal keratinocyte (HaCaT) cell lines were purchased from the American Type Culture Collection (ATCC, Rockville, MD, USA). The cells were cultured in medium according to protocols (MEM for SW480 and SW620, RPMI 1640 for PC3 and K-562, and DMEM for HaCaT cells), supplemented with 10% FBS, penicillin (100 U/mL) and streptomycin (100 μg/mL), and cultured in a 37 °C/5% CO2 humidified incubator. The cells were cultured until appropriate confluence was achieved (80–90%). Next, they were harvested by treatment with 0.25% trypsin (Gibco Life Technologies, Waltham, MA, USA) excluding the non-adherent K-562 cell line and used for studies.
(§3) Cells without the studied compounds in medium were used as a control.
(§4) The cell viability was assessed by determination of MTT salt [3-(4,5-dimethylthiazol-2-yl)-2,5-diphenyltetrazoliumbromide] conversion by mitochondrial dehydrogenase. The MTT assay was performed as previously described. Alternatively, non-adherent leukemic cells were centrifuged in a microplate centrifuge (400× g, 5 min) during the collection stages. Experiments were repeated three times. Cell viability was presented as a percent of MTT reduction in the treated cells versus the control cells. The number of viable cells cultured without the studied compounds was assumed as 100%. A decreased relative MTT level indicated decreased cell viability. Thiourea compounds with the highest cytotoxic potential assessed by MTT determination (with the lowest IC50) were chosen for subsequent assessments of cytotoxicity mechanisms.

[2] = tested on: SW480, SW620, PC3, K-562 cells; assay: MTT assay, summary over cancer cell lines; assay type: cell-based; conditions: Homo sapiens, 72 h, depending on the tumor line, read-out: IC50 (range or bound over cancer cell lines)
Description: as §1, §3, §4

SW620 cells = assay: Trypan blue assay, SW620; assay type: cell-based, human; conditions: SW620, 72 h; for Cell Number × 10^5 / Viability (%): compound at IC50 concentration; for reduction in live cell number: vs control
Description: In order to estimate the tumor and normal cell population density and their viability after treatment with compounds 1–3, 8, and 9, the trypan blue dye exclusion assay was performed. The live cell number of all cancerous cells incubated for 72 h with the studied thioureas was considerably lower in comparison with the controls (Table 2; Figure S1A). The highest reduction in cell amount was denoted for both colon SW480 and SW620 cells treated with the dichlorophenyl derivative 2, and it accounted for 93%. […] Similarly, a noticeable decline in both colon cancer cell populations was observed after treatment with the ortho-substituted compound 8. The number of live cells equaled 12% and 18%, respectively, as compared to controls. This thiourea also led to a reduction of PC3 cells of 38%, and leukemia K-562 cell lines of 27%. The number of SW620 and PC3 cells decreased by 72% and 63% in the presence of para-substituted compound 9. However, the reducing influence of this thiourea on the number of other cancerous cells was at the level of 21–32%. […] A significant effect on the other studied pathological cells was also noticed and accounted for 32–46%. Furthermore, the derivative 3 reduced the amount of live cancer cells by 32–59%, of which its decreasing impact on colon cancer cells was the greatest.
The live cell count was assessed by the trypan blue exclusion dye assay using an automated cell counter (CountessTM Invitrogen, Waltham, MA, USA). Untreated cells were used as the control.

SW480 cells = assay: MTT assay, SW480; assay type: cell-based, human; conditions: 50% growth inhibition
Description: as §1, §2, §3, §4

IL-6 level, SW620 cells = assay: IL-6 level ELISA, SW620; assay type: cell-based, human; conditions: SW620, 72 h; for reduction (inhibition) of IL-6 level: IC50 concentration, vs control; for IL-6 Concentration: compound at IC50 concentration, ELISA
Description: Because of the low secretion of IL-6 by leukemic cells compared to solid tumors, and in addition to the lack of IL-6 receptors in K-562 cells, studies of the effect of derivatives 1–3, 8, and 9 on the inhibition of IL-6 release were carried out on primary and secondary solid tumor cells (SW480, SW620, and PC3). A remarkable inhibition of the IL-6 level was denoted for both colon cancer cell lines. Compound 2, identified as the strongest inhibitor, reduced the interleukin level by 54% (in SW480 cells) and 63% (SW620 cells). A significant effect was also observed in these cells for its structural isomer 3 (39% and 23% of inhibition, respectively). Additionally, compound 3 considerably affected the IL-6 level produced by PC3 cells, and reduced it by 33%. Similarly, the treatment with derivative 1 was effective for both colon cancer cells. In its presence, IL-6 release decreased by 28–36%, as compared to controls. For monosubstituted derivatives 8 and 9, the observed IL-6-reducing influence was weaker. They both inhibited IL-6 secretion in SW480 and SW620 cell lines by 25–32%. In contrast to compound 9, thiourea 8 additionally diminished the cytokine level in PC3 cells by 26%.
The IL-6 concentration in all studied cancer cells and normal HaCaT cell lines was measured by an ELISA kit (Diaclon SAS Besancon CEDEX, Besançon, France). […] IL-6 in cell culture supernatant was measured using the enzyme-linked immunosorbent assay in accordance with the manufacturer’s protocol.

HaCaT cells [3] = assay: Annexin V-FITC/PI flow cytometry, HaCaT; assay type: cell-based, human; conditions: 72 h, IC50 concentration, Annexin V-FITC/PI
Description: (§5) To estimate the mechanism of anticancer activity of the selected compounds 1–3, 8, and 9, their effect on both early and late apoptosis was evaluated by flow cytometry analysis. […] Additionally, visible late apoptosis-inducing properties in these cell lines were denoted for the compound 9 (47% ± 3.0%), which was twice as strong towards the colon tumor cells mentioned above. The apoptotic properties of analogs 3 and 8 in K-562 cells varied from 30% ± 1.6% to 33% ± 2.3%. […] Whereas the apoptosis-generating influence of derivatives 2 and 3 on normal keratinocytes was higher (29% and 23%), their selectivity measured by MTT methods is favorable. The obtained results are in agreement with the IC50 values assigned to pathological cancer cell lines. The cells were cultured and harvested under the conditions described in Section 3.2.1. […] The effect of these compounds on the process of early and late apoptosis and necrosis was determined as described previously by dual staining with Annexin V:FITC and propidium iodide, according to the manufacturer’s protocol (Becton Dickinson). The cells that were Annexin V:FITC positive and PI negative were identified as early apoptotic, and Annexin V:FITC and PI positive as late apoptotic or necrotic.

PC3 cells = assay: Annexin V-FITC/PI flow cytometry, PC3; assay type: cell-based, human; conditions: PC3, 72 h, IC50 concentration
Description: as §5

Compound | IC50 (HaCaT cells [1]) | IC50 [2] | Cell Number × 10^5 (SW620 cells) | Viability (%) (SW620 cells) | IC50 (SW480 cells; Homo sapiens, SW480, 72 h) | reduction (inhibition) of IL-6 level (IL-6 level, SW620 cells) | IL-6 Concentration (IL-6 level, SW620 cells) | cells in late apoptosis (HaCaT cells [3]) | reduction in live cell number (SW620 cells; IC50 concentration) | melting point | cells in late apoptosis (PC3 cells) | decrease of cell viability (SW620 cells; IC50 concentration) | number of live cells as compared to controls (SW620 cells; IC50 concentration) | IC50 (SW480 cells; 72 h)
FC(F)(F)c1cccc(NC(S)=Nc2ccc(Cl)cc2Cl)c1 [Compound 3, 1-(2,4-dichlorophenyl)-3-[3-(trifluoromethyl)phenyl]thiourea] | 52.1 ± 0.95 µM | ≤ 10 µM | 2.4 ± 0.20 × 10^5 | 93 ± 2.33% | 30.1 ± 3.11 µM | 23% | 5.9 ± 0.03 pg/mL | 23% | – | – | – | – | – | –
FC(F)(F)c1cccc(NC(=S)Nc2ccc(Cl)c(Cl)c2)c1 [Compound 2, 1-(3,4-dichlorophenyl)-3-[3-(trifluoromethyl)phenyl]thiourea] | 24.7 ± 0.05 µM | – | 0.4 ± 0.22 × 10^5 | 42 ± 1.30% | 9 ± 1.42 µM | 63% | 2.8 ± 0.03 pg/mL | 29% | 93% | – | – | – | – | –
FC(F)(F)c1cccc(NC(=S)Nc2ccc(Cl)cc2)c1 [Compound 9, 1-(4-chlorophenyl)-3-[3-(trifluoromethyl)phenyl]thiourea] | 71.5 ± 3.08 µM | ≤ 10 µM | 1.6 ± 0.11 × 10^5 | 84 ± 3.08% | 38.1 ± 4.38 µM | – | 5.2 ± 0.03 pg/mL | – | 72% | – | – | – | – | –
FC(F)(F)c1ccc(NC(=S)Nc2cccc(C(F)(F)F)c2)cc1 [Compound 8, 1-[3-(trifluoromethyl)phenyl]-3-[4-(trifluoromethyl)phenyl]thiourea] | 41.3 ± 0.17 µM | – | 1.0 ± 0.20 × 10^5 | 55 ± 1.11% | 8.9 ± 1.14 µM | – | 5.8 ± 0.06 pg/mL | – | – | 134 to 136 °C | 25% ± 1.5% | 45% | 18% | –
Fc1ccc(NC(=S)Nc2cccc(C(F)(F)F)c2)cc1Cl [Compound 1, 1-(3-chloro-4-fluorophenyl)-3-[3-(trifluoromethyl)phenyl]thiourea] | 43.6 ± 4.22 µM | ≤ 10 µM | 1.3 ± 0.25 × 10^5 | 79 ± 1.30% | 12.7 to 15.6 µM | – | 4.9 ± 0.01 pg/mL | – | – | – | – | – | – | 12.7 ± 1.53 µM
